Reference: BigSolDB 2.1

CC(C)=CCOc1c2ccoc2cc2oc(=O)ccc12
solubility (mole fraction)
Settings	288.2 K	293.2 K	298.2 K	303.2 K	308.2 K	313.2 K	318.2 K	323.2 K	328.2 K
in ethanol	0.00263	0.00377	0.00531	0.00733	0.00999	0.0134	0.0178	0.023	0.03
in water	6.03e-07	7.42e-07	9.34e-07	1.02e-06	1.16e-06	1.29e-06	1.68e-06	2.17e-06	2.79e-06
